Assay results taken from PMC3552018 (Insect molecular biology, 2012).

Biological target: T1, LUSH (Drosophila melanogaster, UniProt O02372)
T1 sequence (O02372 30-153): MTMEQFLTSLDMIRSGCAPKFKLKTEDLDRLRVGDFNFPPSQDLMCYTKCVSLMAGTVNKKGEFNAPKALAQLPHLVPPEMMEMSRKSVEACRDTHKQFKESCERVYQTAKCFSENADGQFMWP
Assay type: binding

Kd [nM] | Structure (SMILES)
215 | CCC/C=C\C=C\CCCCCCCCCO [bombykol]
108 | CCCCCC/C=C\CCCCCCCCCCOC(C)=O [cVA, 11-cis vaccenyl acetate]
